# Measurements published in US10611750B2, “Tetrahydroquinoline compositions as bet bromodomain inhibitors” (FORMA Therapeutics, Inc., priority 2013, dated 2020).
# Several values for one entry are separate records, joined by “and”; a condition that tells them apart may be missing. Equal entries are not always repeated. Where two headings read alike, the source gives them in different places.
# Tests used:
# [1] = target: T1, BRD4 Bromodomain 1 (BRD4 BD1) (Homo sapiens, UniProt O60885); assay: AlphaScreen binding assay, BRD4 BD1; conditions: His-tagged BRD4 BD1 50 nM, biotinylated H4 (1-21) K5/8/12/16 tetra-acetylated peptide 50 nM, compounds listed under IC50 range headings
# T1 construct: 44-168 and BRD4 BD2
# In short: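 An AlphaScreen competition format was used with His-BRD4 BD1 or BD2 and biotin-H4 K5/8/12/16-acetyl peptide, each at matched final levels of 50 nM (BD1) or 100 nM (BD2). Incubation in HEPES/NaCl buffer with 0.1% BSA and 0.01% Triton X-100 ran ≥1 h before IC50 determination.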
# [2] = tested on: acute myelocytic leukemia (AML) cell line MV4-11; assay: Oncology cell growth assay (3-day proliferation, CellTiter-Glo); assay type: cell-based; conditions: Homo sapiens, MV4-11 cells, 3000 cells/well, compounds listed under IC50 range headings, read-out: MV411 IC50 (gIC50, inhibition of proliferation)
# In short: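 72 h, 37° C, 5% CO2; MV4-11, 3000 cells/well, RPMI 1640 + 10% FBS. Compound final 10, 3.3, 1.1, 0.37, 0.12, 0.041, 0.013, 0.0045 μM. Readout CellTiter-Glo luminescence; gIC50 by 4-parameter logistic fit, normalised to DMSO and no-cell background.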
SMILES,IC50 [1],"IC50 ([2]; MV4-11, 72 h)",IC50 ([2]; 72 hours)
"C[C@H]1CCc2c(ccc(-c3ncc(C4CCNCC4)[nH]3)c2OC2CCC2)N1C(=O)C1CC1 [I-328, (S)-(5-cyclobutoxy-2-methyl-6-(5-(piperidin-4-yl)-1H-imidazol-2-yl)-3,4-dihydroquinolin-1(2H)-yl)(cyclopropyl)methanone]",1 to 10 µM,< 0.5 µM,–
"COC(=O)N1c2ccc(-n3cc(N4CCOCC4)cn3)c(Oc3ccccc3)c2CC[C@@H]1C [I-339, (S)-methyl 2-methyl-6-(4-morpholino-1H-pyrazol-1-yl)-5-phenoxy-3,4-dihydroquinoline-1(2H)-carboxylate]",1 to 10 µM,> 1 µM,–
"COC(=O)N1c2ccc(-n3cc(N4CCNCC4)cn3)c(Oc3ccccc3)c2CC[C@@H]1C [I-340, (S)-methyl 2-methyl-5-phenoxy-6-(4-(piperazin-1-yl)-1H-pyrazol-1-yl)-3,4-dihydroquinoline-1(2H)-carboxylate]",1 to 10 µM,> 1 µM,–
"COC(=O)N1c2ccc(-c3cnn(C4CCS(=O)(=O)CC4)c3)c(OC3CCC3)c2CC[C@@H]1C [I-341, methyl (2S)-5-cyclobutoxy-6-[1-(1,1-dioxo-1λ^6-thian-4-yl)-1H-pyrazol-4-yl]-2-methyl-1,2,3,4-tetrahydroquinoline-1-carboxylate]",0.1 to 1 µM,0.5 to 1 µM,–
"COC(=O)N1c2ccc(C#N)c(Oc3ccccc3)c2CC[C@@H]1C [I-344, (S)-methyl 6-cyano-2-methyl-5-phenoxy-3,4-dihydroquinoline-1(2H)-carboxylate]",≥ 10 µM,> 1 µM,–
"C#Cc1ccc2c(c1Oc1ccccc1)CC[C@H](C)N2C(=O)OC [I-346, (S)-methyl 6-ethynyl-2-methyl-5-phenoxy-3,4-dihydroquinoline-1(2H)-carboxylate]",≥ 10 µM,> 1 µM,–
"CC#Cc1ccc2c(c1Oc1ccccc1)CC[C@H](C)N2C(=O)C1CC1 [I-347, (S)-cyclopropyl(2-methyl-5-phenoxy-6-(prop-1-ynyl)-3,4-dihydroquinolin-1(2H)-yl)methanone]",≥ 10 µM,> 1 µM,–
"COC(=O)N1c2ccc(-c3csc(C4(F)CNC4)n3)c(OC3CCC3)c2CC[C@@H]1C [I-349, (S)-methyl 5-cyclobutoxy-6-(2-(3-fluoroazetidin-3-yl)thiazol-4-yl)-2-methyl-3,4-dihydroquinoline-1(2H)-carboxylate]",1 to 10 µM,> 1 µM,–
"COC(=O)N1c2ccc(-c3csc(C4(OC)CNC4)n3)c(OC3CCC3)c2CC[C@@H]1C [I-350, (S)-methyl 5-cyclobutoxy-6-(2-(3-methoxyazetidin-3-yl)thiazol-4-yl)-2-methyl-3,4-dihydroquinoline-1(2H)-carboxylate]",1 to 10 µM,> 1 µM,–
"COC(=O)N1c2ccc(-c3cnn(C4CCNCC4)c3F)c(OC3CCC3)c2CC[C@@H]1C [I-360, methyl (S)-5-cyclobutoxy-6-(5-fluoro-1-(piperidin-4-yl)-1H-pyrazol-4-yl)-2-methyl-3,4-dihydroquinoline-1(2H)-carboxylate]",0.1 to 1 µM,–,< 0.5 µM
"COC(=O)N1c2ccc(-c3cnn([C@@H]4CCNC[C@H]4F)c3)c(OC3CCC3)c2CC[C@@H]1C [I-367, methyl (2S)-5-cyclobutoxy-6-{1-[(3R,4R)-3-fluoropiperidin-4-yl]-1H-pyrazol-4-yl}-2-methyl-1,2,3,4-tetrahydroquinoline-1-carboxylate]",0.1 to 1 µM,< 0.5 µM,–
"C[C@H]1CCc2c(ccc(-c3cnn([C@@H]4CCNC[C@@H]4F)c3)c2OC2CCC2)N1C(=O)C1CC1 [I-369, (2S)-5-cyclobutoxy-1-cyclopropanecarbonyl-6-{1-[(3S,4R)-3-fluoropiperidin-4-yl]-1H-pyrazol-4-yl}-2-methyl-1,2,3,4-tetrahydroquinoline]",0.1 to 1 µM,< 0.5 µM,–

# Further lines, with some results ahead:
IC50 [1],"IC50 ([2]; MV4-11, 72 h)",SMILES,IC50 ([2]; 72 hours)
0.1 to 1 µM,< 0.5 µM,"C[C@H]1CCc2c(ccc(-c3ncc(C4CCNCC4)[nH]3)c2Oc2ccccc2)N1C(=O)C1CC1 [I-329, (S)-cyclopropyl(2-methyl-5-phenoxy-6-(5-(piperidin-4-yl)-1H-imidazol-2-yl)-3,4-dihydroquinolin-1(2H)-yl)methanone]",–
0.1 to 1 µM,< 0.5 µM,"Cc1cc(Oc2c(-c3cnn(C4CCNCC4)c3)ccc3c2CC[C@H](C)N3C(=O)C2CC2)cc(C)n1 [I-330, (S)-cyclopropyl(5-(2,6-dimethylpyridin-4-yloxy)-2-methyl-6-(1-(piperidin-4-yl)-1H-pyrazol-4-yl)-3,4-dihydroquinolin-1(2H)-yl)methanone]",–
0.1 to 1 µM,< 0.5 µM,"Cc1cccc(Oc2c(-c3cnn(C4CCNCC4)c3)ccc3c2CC[C@H](C)N3C(=O)C2CC2)n1 [I-331, (S)-cyclopropyl(2-methyl-5-(6-methylpyridin-2-yloxy)-6-(1-(piperidin-4-yl)-1H-pyrazol-4-yl)-3,4-dihydroquinolin-1(2H)-yl)methanone]",–
0.1 to 1 µM,< 0.5 µM,"Cc1ccc(Oc2c(-c3cnn(C4CCNCC4)c3)ccc3c2CC[C@H](C)N3C(=O)C2CC2)c(C)n1 [I-332, (S)-cyclopropyl(5-(2,6-dimethylpyridin-3-yloxy)-2-methyl-6-(1-(piperidin-4-yl)-1H-pyrazol-4-yl)-3,4-dihydroquinolin-1(2H)-yl)methanone]",–
0.1 to 1 µM,< 0.5 µM,"COC(=O)N1c2ccc(-c3cnn(C4CCNCC4)c3)c(Oc3cccc(C)n3)c2CC[C@@H]1C [I-333, (S)-methyl 2-methyl-5-(6-methylpyridin-2-yloxy)-6-(1-(piperidin-4-yl)-1H-pyrazol-4-yl)-3,4-dihydroquinoline-1(2H)-carboxylate]",–
1 to 10 µM,< 0.5 µM,"CC(=O)N1c2ccc(-c3cnn(C4CCNCC4)c3)c(Oc3cccc(C)n3)c2CC[C@@H]1C [I-334, (S)-1-(2-methyl-5-(6-methylpyridin-2-yloxy)-6-(1-(piperidin-4-yl)-1H-pyrazol-4-yl)-3,4-dihydroquinolin-1 (2H)-yl)ethanone]",–
0.1 to 1 µM,< 0.5 µM,"COC(=O)N1c2ccc(-c3cnn(C4CCNCC4)c3)c(Oc3cccc(OC)n3)c2CC[C@@H]1C [I-335, (S)-methyl 5-(6-methoxypyridin-2-yloxy)-2-methyl-6-(1-(piperidin-4-yl)-1H-pyrazol-4-yl)-3,4-dihydroquinoline-1(2H)-carboxylate]",–
0.1 to 1 µM,< 0.5 µM,"COc1cccc(Oc2c(-c3cnn(C4CCNCC4)c3)ccc3c2CC[C@H](C)N3C(C)=O)n1 [I-336, (S)-1-(5-(6-methoxypyridin-2-yloxy)-2-methyl-6-(1-(piperidin-4-yl)-1H-pyrazol-4-yl)-3,4-dihydroquinolin-1 (2H)-yl)ethanone]",–
1 to 10 µM,> 1 µM,"C[C@H]1CCc2c(ccc(-n3cc(N4CCNCC4)cn3)c2Oc2ccccc2)N1C(=O)C1CC1 [I-337, (S)-cyclopropyl(2-methyl-5-phenoxy-6-(4-(piperazin-1-yl)-1H-pyrazol-1-yl)-3,4-dihydroquinolin-1(2H)-yl)methanone]",–
1 to 10 µM,0.5 to 1 µM,"C[C@H]1CCc2c(ccc(-n3cc(N4CCOCC4)cn3)c2Oc2ccccc2)N1C(=O)C1CC1 [I-338, (S)-cyclopropyl(2-methyl-6-(4-morpholino-1H-pyrazol-1-yl)-5-phenoxy-3,4-dihydroquinolin-1(2H)-yl)methanone]",–
0.1 to 1 µM and ≥ 10 µM,< 0.5 µM,"C[C@H]1CCc2c(ccc(C#N)c2Oc2ccccc2)N1C(=O)C1CC1 [I-343, (S)-1-(cyclopropanecarbonyl)-2-methyl-5-phenoxy-1,2,3,4-tetrahydroquinoline-6-carbonitrile]",–
≥ 10 µM,> 1 µM,"C#Cc1ccc2c(c1Oc1ccccc1)CC[C@H](C)N2C(=O)C1CC1 [I-345, (S)-cyclopropyl(6-ethynyl-2-methyl-5-phenoxy-3,4-dihydroquinolin-1(2H)-yl)methanone]",–
1 to 10 µM,< 0.5 µM,"C[C@H]1CCc2c(ccc(-n3cc(C4CCNCC4)cn3)c2Oc2ccccc2)N1C(=O)C1CC1 [I-348, (S)-cyclopropyl(2-methyl-5-phenoxy-6-(4-(piperidin-4-yl)-1H-pyrazol-1-yl)-3,4-dihydroquinolin-1(2H)-yl)methanone]",–
0.1 to 1 µM,< 0.5 µM,"COC(=O)N1c2ccc(-c3cnn([C@@H]4CCNC[C@H]4F)c3)c(Oc3ccc(F)cc3)c2CC[C@@H]1C [I-368, methyl (2S)-5-(4-fluorophenoxy)-6-{1-[(3R,4R)-3-fluoropiperidin-4-yl]-1H-pyrazol-4-yl}-2-methyl-1,2,3,4-tetrahydroquinoline-1-carboxylate]",–
0.1 to 1 µM,< 0.5 µM,CC(=O)N1c2ccc(-c3cnn(C4CC4)c3)c(OCC(C)C)c2CC[C@@H]1C [I-394],–
0.1 to 1 µM,0.5 to 1 µM,C[C@H]1CCc2c(ccc(-c3cnn(C4CCOCC4)c3)c2OC2CCC2)N1C(=O)C1CC1 [I-507],–
0.1 to 1 µM,< 0.5 µM,C[C@H]1CCc2c(ccc(-c3cnn(C4CCCS(=O)(=O)C4)c3)c2OC2CCC2)N1C(=O)C1CC1 (stereo partly drawn) [I-508],–
0.1 to 1 µM,< 0.5 µM,C[C@H]1CCc2c(ccc(-c3cnn(C4CS(=O)(=O)C4)c3)c2OC2CCC2)N1C(=O)C1CC1 [I-509],–
